Test results reported in patent US6737383B1, “Herbicidal oxadiazolidines” (priority 1999, dated 2004).

Tests used:
corn = experiment: Test B pre/postemergence corn; assay type: in vivo, Zea mays
How it was run: (§1)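 Herbicidal effect was estimated by eye on a ten-point control scale after plants spent twelve to sixteen days in a greenhouse following soil or foliar treatment. Foliar sprays targeted plants at one to four leaves; all doses were formulated in a non-phytotoxic solvent with surfactant.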

rape = experiment: Test B pre/postemergence rape; assay type: in vivo, Brassica napus
How it was run: as §1

soybean = experiment: Test B pre/postemergence soybean; assay type: in vivo, Glycine max; conditions: for Plant response rating, Soybean: Postemergence
How it was run: as §1

sugar beet = experiment: Test B pre/postemergence sugar beet; assay type: in vivo, Beta vulgaris; conditions: for Plant response rating, Sugarbeets: Postemergence
How it was run: as §1

purple nutsedge = experiment: Test B pre/postemergence purple nutsedge; assay type: in vivo, Cyperus rotundus
How it was run: as §1

smallflower flatsedge = experiment: Test B flood test smallflower flatsedge; assay type: in vivo, Cyperus difformis
How it was run: (§2)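 Plants were grown to the 2-leaf stage before treatment with test chemical, then held in a greenhouse for twelve to sixteen days. Injury was visually rated against untreated controls on a 0–10 scale, where 0 is no effect and 10 is complete control.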

giant foxtail = experiment: Test B pre/postemergence giant foxtail; assay type: in vivo, Setaria faberii
How it was run: as §1

bamyardgrass = experiment: Test B flood test barnyardgrass; assay type: in vivo, Echinochloa crus-galli
How it was run: as §2

wild oat = experiment: Test B pre/postemergence wild oat; assay type: in vivo, Avena fatua; conditions: for Plant response rating, Wild oats: Postemergence
How it was run: as §1

pigweed = experiment: Test B pre/postemergence pigweed; assay type: in vivo, Amaranthus retroflexus; conditions: for Plant response rating, Redroot pigweed: Postemergence
How it was run: as §1

bedstraw = experiment: Test B pre/postemergence bedstraw; assay type: in vivo, Galium aparine
How it was run: as §1

velvetleaf = experiment: Test B pre/postemergence velvetleaf; assay type: in vivo, Abutilon theophrasti; conditions: for Plant response rating, Velvetleaf: Postemergence
How it was run: as §1

surinam grass = experiment: Test B pre/postemergence surinam grass; assay type: in vivo, Brachiaria decumbens
How it was run: as §1

crabgrass = experiment: Test B pre/postemergence crabgrass; assay type: in vivo, Digitaria sanguinalis
How it was run: as §1

rice = experiment: Test B flood test rice; assay type: in vivo, Oryza sativa
How it was run: as §2

morningglory = experiment: Test B pre/postemergence morningglory; assay type: in vivo, Ipomoea hederacea
How it was run: as §1

blackgrass = experiment: Test B pre/postemergence blackgrass; assay type: in vivo, Alopecurus myosuroides
How it was run: as §1

duck salad = experiment: Test B flood test duck salad; assay type: in vivo, Heteranthera limosa
How it was run: as §2

cocklebur = experiment: Test B pre/postemergence cocklebur; assay type: in vivo, Xanthium strumarium
How it was run: as §1

wheat = experiment: Test B pre/postemergence wheat; assay type: in vivo, Triticum aestivum; conditions: for Plant response rating, Wheat: Postemergence
How it was run: as §1

[1] = Postemergence, Rate 62 g/ha, scale of 0 to 10, 0 is no effect, 10 is complete control
[2] = Postemergence, Rate 125 g/ha, scale 0 to 10, 0 is no effect, 10 is complete control
[3] = Postemergence, Rate 500 g/ha, scale of 0 to 10 where 0 is no effect and 10 is complete control
[4] = Preemergence, Rate 62 g/ha, scale 0 to 10 (0 no effect, 10 complete control)
[5] = Preemergence, Rate 125 g/ha, scale 0 to 10, 0 is no effect, 10 is complete control
[6] = Preemergence, Rate 500 g/ha, scale of 0 to 10 where 0 is no effect and 10 is complete control
[7] = Rate 250 g/ha, Postemergence, scale of 0 to 10 where 0 is no effect and 10 is complete control
[8] = Rate 500 g/ha, scale of 0 to 10 where 0 is no effect and 10 is complete control
[9] = Rate 250 g/ha, scale of 0 to 10 where 0 is no effect and 10 is complete control
[10] = Rate 62 g/ha, flood test species, Pre-emergence, visual evaluation after twelve to sixteen days
[11] = Rate 125 g/ha, under heading Pre-emergence, flood test species, visual evaluation after twelve to sixteen days
[12] = Rate 250 g/ha, Pre-emergence (flood test species), scale 0 to 10, 0 is no effect, 10 is complete control
[13] = Rate 500 g/ha, Pre-emergence section of Table B, 0 to 10 scale (0 no effect, 10 complete control)

SMILES: CC(C)N(C(=O)n1oc(=O)n(C(C)C(=O)c2ccccc2)c1=O)c1ccccc1 (centres unmarked) [Compound 570]
- Corn plant response rating (corn; [1]): 0
- Corn plant response rating (corn; [2]): 0
- Plant response rating, Corn (corn; [3]): 0
- Corn plant response rating (corn; [4]): 0
- Corn plant response rating (corn; [5]): 0
- Corn plant response rating (0 to 10 scale) (corn; Preemergence, Rate 250 g/ha): 0
- Corn plant response rating (corn; [6]): 0
- Plant response rating, Corn (corn; [7]): 0
- Rape plant response rating (rape; [1]): 0
- Rape plant response rating (rape; [2]): 0
- Plant response rating, Rape (rape; [3]): 0
- Rape plant response rating (rape; [4]): 0
- Rape plant response rating (rape; [5]): 0
- Rape plant response rating (0 to 10 scale) (rape; Preemergence, Rate 250 g/ha): 0
- Rape plant response rating (rape; [6]): 0
- Plant response rating, Rape (rape; [7]): 0
- Plant response rating, Soybean (soybean; [8]): 3
- Soybean plant response rating (soybean; [4]): 0
- Soybean plant response rating (soybean; [5]): 0
- Soybean plant response rating (0 to 10 scale) (soybean; Preemergence, Rate 250 g/ha): 0
- Soybean plant response rating (soybean; [6]): 0
- Plant response rating, Soybean (soybean; [9]): 3
- Plant response rating, Sugarbeets (sugar beet; [8]): 0
- Sugarbeets plant response rating (sugar beet; [4]): 0
- Sugarbeets plant response rating (sugar beet; [5]): 0
- Sugarbeets plant response rating (0 to 10 scale) (sugar beet; Preemergence, Rate 250 g/ha): 0
- Sugarbeets plant response rating (sugar beet; [6]): 2
- Plant response rating, Sugarbeets (sugar beet; [9]): 0
- Nutsedge plant response rating (purple nutsedge; [1]): 0
- Nutsedge plant response rating (purple nutsedge; [2]): 0
- Plant response rating, Nutsedge (purple nutsedge; [3]): 0
- Nutsedge plant response rating (purple nutsedge; [4]): 0
- Nutsedge plant response rating (purple nutsedge; [5]): 0
- Nutsedge plant response rating (purple nutsedge; [6]): 0
- Plant response rating, Nutsedge (purple nutsedge; [7]): 0
- Plant response rating, S. Flatsedge (0 to 10 scale, 0 is no effect, 10 is complete control) (smallflower flatsedge; [10]): 0
- S. Flatsedge plant response rating (0 to 10 scale, 0 is no effect, 10 is complete control) (smallflower flatsedge; [11]): 0
- S. Flatsedge plant response rating (smallflower flatsedge; [12]): 0
- S. Flatsedge plant response rating (smallflower flatsedge; [13]): 0
- Giant foxtail plant response rating (giant foxtail; [1]): 0
- Giant foxtail plant response rating (giant foxtail; [2]): 0
- Plant response rating, Giant foxtail (giant foxtail; [3]): 0
- Giant foxtail plant response rating (giant foxtail; [4]): 0
- Giant foxtail plant response rating (giant foxtail; [5]): 0
- Giant foxtail plant response rating (0 to 10 scale) (giant foxtail; Preemergence, Rate 250 g/ha): 9
- Giant foxtail plant response rating (giant foxtail; [6]): 9
- Plant response rating, Giant foxtail (giant foxtail; [7]): 0
- Plant response rating, Barnyardgrass (0 to 10 scale, 0 is no effect, 10 is complete control) (bamyardgrass; [10]): 0
- Barnyardgrass plant response rating (0 to 10 scale, 0 is no effect, 10 is complete control) (bamyardgrass; [11]): 0
- Barnyardgrass plant response rating (bamyardgrass; [12]): 0
- Barnyardgrass plant response rating (bamyardgrass; [13]): 0
- Plant response rating, Wild oats (wild oat; [8]): 0
- Wild oats plant response rating (wild oat; [4]): 0
- Wild oats plant response rating (wild oat; [5]): 0
- Wild oats plant response rating (0 to 10 scale) (wild oat; Preemergence, Rate 250 g/ha): 0
- Wild oats plant response rating (wild oat; [6]): 0
- Plant response rating, Wild oats (wild oat; [9]): 0
- Plant response rating, Redroot pigweed (pigweed; [8]): 0
- Redroot pigweed plant response rating (pigweed; [4]): 0
- Redroot pigweed plant response rating (pigweed; [5]): 0
- Redroot pigweed plant response rating (0 to 10 scale) (pigweed; Preemergence, Rate 250 g/ha): 0
- Redroot pigweed plant response rating (pigweed; [6]): 8
- Plant response rating, Redroot pigweed (pigweed; [9]): 0
- Bedstraw plant response rating (bedstraw; [1]): 0
- Bedstraw plant response rating (bedstraw; [4]): 0
- Bedstraw plant response rating (bedstraw; [5]): 0
- Bedstraw plant response rating (0 to 10 scale) (bedstraw; Preemergence, Rate 250 g/ha): 0
- Bedstraw plant response rating (bedstraw; [6]): 0
- Plant response rating, Velvetleaf (velvetleaf; [8]): 0
- Velvetleaf plant response rating (velvetleaf; [4]): 0
- Velvetleaf plant response rating (velvetleaf; [5]): 0
- Velvetleaf plant response rating (0 to 10 scale) (velvetleaf; Preemergence, Rate 250 g/ha): 0
- Velvetleaf plant response rating (velvetleaf; [6]): 0
- Plant response rating, Velvetleaf (velvetleaf; [9]): 0
- B. signalgrass plant response rating (surinam grass; [1]): 0
- B. signalgrass plant response rating (surinam grass; [2]): 0
- Plant response rating, B. signalgrass (surinam grass; [3]): 0
- B. signalgrass plant response rating (surinam grass; [4]): 0
- B. signalgrass plant response rating (surinam grass; [5]): 0
- B. signalgrass plant response rating (0 to 10 scale, 0 is no effect, 10 is complete control) (surinam grass; Preemergence, Rate 250 g/ha): 0
- B. signalgrass plant response rating (surinam grass; [6]): 0
- Plant response rating, B. signalgrass (surinam grass; [7]): 0
- Crabgrass plant response rating (crabgrass; [1]): 0
- Crabgrass plant response rating (crabgrass; [2]): 0
- Plant response rating, Crabgrass (crabgrass; [3]): 0
- Crabgrass plant response rating (crabgrass; [4]): 9
- Crabgrass plant response rating (crabgrass; [5]): 9
- Crabgrass plant response rating (0 to 10 scale) (crabgrass; Preemergence, Rate 250 g/ha): 9
- Crabgrass plant response rating (crabgrass; [6]): 10
- Plant response rating, Crabgrass (crabgrass; [7]): 0
- Plant response rating, Rice (0 to 10 scale, 0 is no effect, 10 is complete control) (rice; [10]): 0
- Rice plant response rating (0 to 10 scale, 0 is no effect, 10 is complete control) (rice; [11]): 0
- Rice plant response rating (rice; [12]): 0
- Rice plant response rating (rice; [13]): 0
- Morningglory plant response rating (morningglory; [1]): 4
- Morningglory plant response rating (morningglory; [2]): 10
- Plant response rating, Morningglory (morningglory; [3]): 10
- Morningglory plant response rating (morningglory; [4]): 0
- Morningglory plant response rating (morningglory; [5]): 0
- Morningglory plant response rating (0 to 10 scale) (morningglory; Preemergence, Rate 250 g/ha): 0
- Morningglory plant response rating (morningglory; [6]): 0
- Plant response rating, Morningglory (morningglory; [7]): 10
- Blackgrass plant response rating (blackgrass; [1]): 0
- Blackgrass plant response rating (blackgrass; [2]): 0
- Plant response rating, Blackgrass (blackgrass; [3]): 0
- Blackgrass plant response rating (blackgrass; [4]): 0
- Blackgrass plant response rating (blackgrass; [5]): 0
- Blackgrass plant response rating (0 to 10 scale) (blackgrass; Preemergence, Rate 250 g/ha): 0
- Blackgrass plant response rating (blackgrass; [6]): 0
- Plant response rating, Blackgrass (blackgrass; [7]): 0
- Plant response rating, Ducksalad (0 to 10 scale, 0 is no effect, 10 is complete control) (duck salad; [10]): 0
- Ducksalad plant response rating (0 to 10 scale, 0 is no effect, 10 is complete control) (duck salad; [11]): 0
- Ducksalad plant response rating (duck salad; [12]): 0
- Ducksalad plant response rating (duck salad; [13]): 0
- Cocklebur plant response rating (cocklebur; [1]): 0
- Cocklebur plant response rating (cocklebur; [2]): 0
- Plant response rating, Cocklebur (cocklebur; [3]): 0
- Cocklebur plant response rating (cocklebur; [4]): 0
- Cocklebur plant response rating (cocklebur; [5]): 0
- Cocklebur plant response rating (0 to 10 scale) (cocklebur; Preemergence, Rate 250 g/ha): 0
- Cocklebur plant response rating (cocklebur; [6]): 0
- Plant response rating, Cocklebur (cocklebur; [7]): 0
- Plant response rating, Wheat (wheat; [8]): 0
- Wheat plant response rating (wheat; [4]): 0
- Wheat plant response rating (wheat; [5]): 0
- Wheat plant response rating (0 to 10 scale) (wheat; Preemergence, Rate 250 g/ha): 0
- Wheat plant response rating (wheat; [6]): 0
- Plant response rating, Wheat (wheat; [9]): 0
